Data taken from PMC5514153, “Targeting PTPRZ inhibits stem cell-like properties and tumorigenicity in glioblastoma cells” (Scientific Reports, 2017).

Target: T1, PTPRG V1038F (Homo sapiens, UniProt P23470, V1038F)
T1 construct: Point mutants of the PTPRZ1-ICR, PTPRG-ICR, and PTPN1 catalytic domain were generated; GST (N); made in house
Experiment: Inhibitor sensitivity of point mutant PTPRG V1038F
Format: biochemical
Details: 10 µM, vs wild-type PTPRG
Source text: Figure 5 Structural basis for PTPRZ inhibition of NAZ2329. (A) An enlarged view of the X-ray structure of human PTPRZ1-D1 complexed with NAZ2329 (PDB ID: 5H08) (left), X-ray structure of the apo (open) form of PTPRZ1-D1 (PDB ID: 5AWX, ref. [6], middle) and a computer-modeled structure of the closed form of PTPRZ1-D1 complexed with a competitive inhibitor, SCB4380 (ref. [6], right), are shown. PTPRZ1-D1 is shown as a gray surface representation, in which Cys1933 at the active site and Val-1911 at the bottom of the allosteric pocket are indicated in red and yellow, respectively. Inhibitors are colored according to the atomic species in a stick figure representation as follows: oxygen (red), nitrogen (blue), sulfur (yellow), and carbon (green). The bottom figures show the conformation of the WPD loop (orange) as cartoon representations, in which Asp1901 and Cys1933 are indicated by orange and red spheres, respectively. Side chains of Arg1939 at the active site, Met1902 in the WPD loop, and Val-1911 at the bottom of the allosteric binding area are also shown in the stick representation. (B) LigPlot representation of the NAZ2329 interaction with PTPRZ1-D1. The predicted hydrogen bonds (broken black lines) and residues (red spoked arcs) involved in the hydrophobic interaction are shown. […]

T1 sequence (P23470 763-1445 V1038F limits assumed): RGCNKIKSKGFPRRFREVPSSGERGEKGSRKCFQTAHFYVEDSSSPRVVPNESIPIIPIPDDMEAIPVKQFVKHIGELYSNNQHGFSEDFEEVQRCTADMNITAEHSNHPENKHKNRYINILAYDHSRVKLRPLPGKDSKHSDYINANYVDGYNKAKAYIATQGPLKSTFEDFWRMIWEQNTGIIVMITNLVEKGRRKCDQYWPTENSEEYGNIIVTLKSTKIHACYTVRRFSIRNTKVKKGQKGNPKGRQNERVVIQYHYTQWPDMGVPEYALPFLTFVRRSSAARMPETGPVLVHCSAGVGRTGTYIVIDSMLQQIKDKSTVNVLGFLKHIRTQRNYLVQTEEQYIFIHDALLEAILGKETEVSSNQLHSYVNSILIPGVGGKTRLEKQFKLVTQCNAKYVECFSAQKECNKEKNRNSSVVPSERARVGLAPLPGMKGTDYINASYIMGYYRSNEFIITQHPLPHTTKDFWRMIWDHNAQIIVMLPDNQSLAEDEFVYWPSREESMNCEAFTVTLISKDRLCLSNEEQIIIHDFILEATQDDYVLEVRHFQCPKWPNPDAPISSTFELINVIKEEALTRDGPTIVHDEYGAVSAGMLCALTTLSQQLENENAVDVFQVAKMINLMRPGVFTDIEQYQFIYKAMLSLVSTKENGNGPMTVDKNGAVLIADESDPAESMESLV

## CCOc1ccc(C(F)(F)F)cc1CSc1ccsc1C(=O)NS(=O)(=O)c1ccccc1 [NAZ2329]
  effect of V1038F mutation on sensitivity to inhibitor: resulted in resistance
